Experimental data taken from article PMC4931022, “Arginine demethylation is catalysed by a subset of JmjC histone lysine demethylases” (Nature Communications, 2016).

Key:
Assay type in all cases: biochemical
KDM4E [1] = molecular target: T1, KDM4E (Homo sapiens, UniProt B2RXH2); test: MALDI MS activity assay, recombinant KDM4E catalytic domain; conditions: peptide 10 μM, 1 h, 37 °C, MALDI-TOF MS; for demethylation, in words: KDM4E catalytic domain 2 μM; for observed arginine demethylation activity: KDM4E 2 μM, 2OG 200 μM, ascorbate 100 μM, Fe(II) 10 μM, 50 mM HEPES pH 7.5, −14 Da shift
T1 construct: His6 (N); made in house; host or cells: Escherichia coli
T1 sequence (B2RXH2 1-337): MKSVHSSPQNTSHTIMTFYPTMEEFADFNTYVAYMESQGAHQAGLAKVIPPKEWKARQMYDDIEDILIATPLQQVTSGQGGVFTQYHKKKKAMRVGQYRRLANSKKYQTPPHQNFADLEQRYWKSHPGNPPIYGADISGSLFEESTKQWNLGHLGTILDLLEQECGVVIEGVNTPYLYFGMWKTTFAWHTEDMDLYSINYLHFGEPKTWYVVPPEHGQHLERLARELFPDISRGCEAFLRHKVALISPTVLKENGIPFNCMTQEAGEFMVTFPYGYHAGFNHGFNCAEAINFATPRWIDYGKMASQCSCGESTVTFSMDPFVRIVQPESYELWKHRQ
Method: (§1) MALDI MS activity assays. Recombinant proteins (2 μM) were incubated with peptides (10 μM, sequences are given in Supplementary Table 1) and cofactors/substrates for 1 h at 37 °C, unless otherwise specified. Reactions were quenched with 1:1 (v/v) methanol and analysed with MALDI MS. Assay conditions for each enzyme are given in Supplementary Table 2. Negative controls without enzyme were included.
(§2) Supplementary Table 2 Assay conditions with truncated recombinant protein. […]

KDM5C [2] = molecular target: T2, KDM5C (Homo sapiens, UniProt P41229); test: MALDI MS activity assay, recombinant KDM5C catalytic domain; conditions: peptide 10 μM, 1 h, 37 °C, MALDI-TOF MS; for demethylation, in words: KDM5C catalytic domain 2 μM; for observed arginine demethylation activity: KDM5C 2 μM, 2OG 100 μM, ascorbate 100 μM, Fe(II) 10 μM, 50 mM HEPES pH 7.5, −14 Da shift
T2 construct: KDM5C1–765 was produced as an N-terminally His6-tagged protein in Sf9 cells; His6 (N); made in house; host or cells: Sf9 cells (provided by the Structural Genomics Consortium)
T2 sequence (P41229 1-765): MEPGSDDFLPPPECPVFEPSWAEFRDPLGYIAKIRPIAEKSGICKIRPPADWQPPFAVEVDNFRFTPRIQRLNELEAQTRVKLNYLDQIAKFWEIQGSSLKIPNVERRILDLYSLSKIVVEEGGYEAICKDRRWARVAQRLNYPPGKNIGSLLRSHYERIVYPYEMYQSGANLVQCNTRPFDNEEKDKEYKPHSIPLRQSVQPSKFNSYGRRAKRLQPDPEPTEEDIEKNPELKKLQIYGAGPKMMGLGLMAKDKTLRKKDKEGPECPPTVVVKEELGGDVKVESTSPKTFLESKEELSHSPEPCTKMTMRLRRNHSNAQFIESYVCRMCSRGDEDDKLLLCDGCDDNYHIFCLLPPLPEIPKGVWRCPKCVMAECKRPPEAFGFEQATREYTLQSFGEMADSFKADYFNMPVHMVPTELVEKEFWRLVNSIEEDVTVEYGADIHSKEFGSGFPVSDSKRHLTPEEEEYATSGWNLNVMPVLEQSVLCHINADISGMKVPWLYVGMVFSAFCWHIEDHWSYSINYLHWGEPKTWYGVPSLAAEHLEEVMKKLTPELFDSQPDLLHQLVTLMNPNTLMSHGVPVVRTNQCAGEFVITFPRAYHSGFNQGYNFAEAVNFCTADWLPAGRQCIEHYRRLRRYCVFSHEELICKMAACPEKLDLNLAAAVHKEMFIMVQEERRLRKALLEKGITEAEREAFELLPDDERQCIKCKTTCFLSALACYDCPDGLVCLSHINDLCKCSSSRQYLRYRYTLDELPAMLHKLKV
Method: as §1, §2

KDM3A [3] = molecular target: T3, KDM3A (Homo sapiens, UniProt Q9Y4C1); test: MALDI MS activity assay, recombinant KDM3A catalytic domain; conditions: KDM3A 2 μM, peptide 10 μM, 1 h, 37 °C, 2OG 100 μM, ascorbate 100 μM, Fe(II) 50 μM, 50 mM HEPES pH 7.5; MALDI-TOF MS, −14 Da shift
T3 construct: KDM3A515–1,317; His6 (N); made in house; host or cells: Sf9 cells
T3 sequence (Q9Y4C1 515-1317 limits assumed): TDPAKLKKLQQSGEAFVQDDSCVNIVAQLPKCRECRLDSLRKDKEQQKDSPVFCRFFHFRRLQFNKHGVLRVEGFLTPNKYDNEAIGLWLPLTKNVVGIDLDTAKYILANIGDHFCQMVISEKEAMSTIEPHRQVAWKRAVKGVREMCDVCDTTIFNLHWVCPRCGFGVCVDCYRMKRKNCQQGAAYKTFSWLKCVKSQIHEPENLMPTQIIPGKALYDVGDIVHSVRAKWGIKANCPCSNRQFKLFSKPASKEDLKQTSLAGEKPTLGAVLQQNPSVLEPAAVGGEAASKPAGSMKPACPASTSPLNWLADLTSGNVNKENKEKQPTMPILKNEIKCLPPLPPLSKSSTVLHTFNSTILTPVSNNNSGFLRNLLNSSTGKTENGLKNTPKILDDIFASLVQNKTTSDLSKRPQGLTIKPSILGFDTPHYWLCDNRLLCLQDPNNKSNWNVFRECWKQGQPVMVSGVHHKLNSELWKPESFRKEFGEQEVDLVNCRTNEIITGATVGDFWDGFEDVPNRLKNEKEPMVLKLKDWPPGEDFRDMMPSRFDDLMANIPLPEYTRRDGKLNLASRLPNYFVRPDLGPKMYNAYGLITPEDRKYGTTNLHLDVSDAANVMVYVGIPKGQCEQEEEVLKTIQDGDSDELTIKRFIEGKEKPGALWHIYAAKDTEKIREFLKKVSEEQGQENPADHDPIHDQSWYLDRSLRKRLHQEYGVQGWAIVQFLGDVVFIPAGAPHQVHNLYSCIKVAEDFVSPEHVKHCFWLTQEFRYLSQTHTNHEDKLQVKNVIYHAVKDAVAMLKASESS
Method: as §1
(§3) Supplementary Table 2 Assay conditions with truncated recombinant protein.
(§4) Supplementary Table 3 Assay conditions with full length Flag-tagged KDMs.

KDM6B = molecular target: T4, KDM6B (Homo sapiens, UniProt O15054); test: MALDI MS activity assay, recombinant KDM6B catalytic domain; conditions: KDM6B 2 μM, peptide 10 μM, 1 h, 37 °C, 2OG 100 μM, ascorbate 100 μM, Fe(II) 10 μM, 50 mM HEPES pH 7.5, 150 mM NaCl; MALDI-TOF MS, −14 Da shift
T4 construct: His6 (N); made in house; host or cells: Escherichia coli
Method: as §1, §3, §4

KDM5C [4] = molecular target: T2, KDM5C; test: Formaldehyde dehydrogenase-coupled demethylation assay, KDM5C; conditions: for kcat / Km: KDM5C catalytic domain, apparent, preliminary, 37 °C, mean±s.e.m., n=3; for kcat: FDH/NAD+-coupled assay; for Km: FDH/NAD+-coupled formaldehyde assay, 2OG 200 μM, Fe(II) 10 μM, ascorbate 100 μM; for kcat/KM: KDM5C, calculated from the average kcat and KM values, μM^−1 s^−1 for this quantity
Method: (§5) Formaldehyde dehydrogenase-coupled assays. Preliminary kinetic parameters were determined by detection of the formaldehyde by-product of the demethylation reaction using a FDH (formaldehyde dehydrogenase-coupled)/NAD^+-coupled assay as previously described. Assays were carried out in buffer (enzyme-dependent) with the addition of Fe(II) ammonium sulfate (10 μM), sodium ascorbate (100 μM), 2OG (200 μM), NAD^+ (500 μM), enzyme (0.2–4 μM) and FDH enzyme (0.025 U per assay, Sigma-Aldrich; total volume 30 μl) and were conducted at 37 °C in clear-bottom black 384-well plates. […] The Km and Vmax values were calculated from the reaction rate during the linear phase of formaldehyde production, as determined by the slope of the fluorescence signal recorded.

KDM4E [5] = molecular target: T1, KDM4E; test: Formaldehyde dehydrogenase-coupled demethylation assay, KDM4E; conditions: for Km: FDH/NAD+-coupled formaldehyde assay, 2OG 200 μM, Fe(II) 10 μM, ascorbate 100 μM
Method: as §5

KDM3A [6] = molecular target: T3, KDM3A; test: Formaldehyde dehydrogenase-coupled demethylation assay, KDM3A; conditions: for kcat / Km: KDM3A catalytic domain, apparent, preliminary, 37 °C, mean±s.e.m., n=3; for kcat: FDH/NAD+-coupled assay; for Km: FDH/NAD+-coupled formaldehyde assay, 2OG 200 μM, Fe(II) 10 μM, ascorbate 100 μM, fluorescence 355/460 nm; for kcat/KM: KDM3A, calculated from the average kcat and KM values, μM^−1 s^−1 for this quantity
Method: as §5

[7] = KDM4E catalytic domain, apparent, preliminary, FDH/NAD+-coupled assay, 37 °C, mean±s.e.m., n=3
[8] = KDM4E catalytic domain, apparent, preliminary, 37 °C, mean±s.e.m., n=3
[9] = KDM4E, calculated from the average kcat and KM values, μM^−1 s^−1 for this quantity

T4 sequence (O15054 1141-1590 limits assumed): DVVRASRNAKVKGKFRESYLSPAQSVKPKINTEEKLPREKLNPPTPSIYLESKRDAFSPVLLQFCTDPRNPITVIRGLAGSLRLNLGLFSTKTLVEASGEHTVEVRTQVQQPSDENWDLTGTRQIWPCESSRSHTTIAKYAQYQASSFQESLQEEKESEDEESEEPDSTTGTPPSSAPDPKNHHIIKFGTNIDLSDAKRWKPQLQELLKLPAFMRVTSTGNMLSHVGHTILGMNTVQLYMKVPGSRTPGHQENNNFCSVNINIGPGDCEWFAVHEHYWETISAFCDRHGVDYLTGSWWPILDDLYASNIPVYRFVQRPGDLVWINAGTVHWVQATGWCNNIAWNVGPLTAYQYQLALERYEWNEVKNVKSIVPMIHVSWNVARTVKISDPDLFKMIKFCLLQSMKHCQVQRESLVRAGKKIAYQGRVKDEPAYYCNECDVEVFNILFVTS

For “A-Kme3-TKQTARKSTGGKA [H3R2Kme3, histone H3 peptide with trimethyllysine substituted for R2]”, the “demethylation, in words” value (KDM4E [1]) was “not observed to be a KDM substrate”, the “demethylation, in words” value (KDM4E [1]; listed as H3(1–15)R2Kme3) was “no demethylation activity” and the “demethylation, in words” value (KDM5C [2]) was “not observed to be a KDM substrate”. For the same substance, the “demethylation, in words” value (KDM5C [2]; listed as H3(1–15)R2Kme3) was “no demethylation activity”.

For “A-Rme-TKQTARKSTGGKA [H3 (1–15) R2me, 'natural' histone H3 peptide monomethylated at R2]”, the “observed arginine demethylation activity” value (KDM3A [3]) was “−”, the “observed arginine demethylation activity” value (KDM6B) was “−” and the “observed arginine demethylation activity” value (KDM4E [1]) was “+”. For the same substance, the “observed arginine demethylation activity” value (KDM5C [2]) was “+”.

In the case of “ART-Kme3-QTARKSTGGKA [H3(1-15)K4me3, recognized histone H3 N-methylated-lysine peptide substrate for KDM5C, reference compound]”, the kcat (KDM5C [4]) is reported as 67.1±10.3 × 10^−3 s^−1, the Km (KDM5C [4]) is reported as 7.6 ± 2.9 µM and the kcat/KM (KDM5C [4]) is reported as 8,800 × 10^−6.

With “ART-Rme2a-QTARKSTGGKA [H3(1-15)K4Rme2a, histone H3 fragment with asymmetric dimethylarginine replacing methylated K4]” the kcat (KDM5C [4]) was 41.2±3.5 × 10^−3 s^−1, the Km (KDM5C [4]) was 29 ± 0.5 µM and the kcat/KM (KDM5C [4]) was 1,420.0 × 10^−6.

With “ART-Rme2s-QTARKSTGGKA [H3(1-15)K4Rme2s, histone H3 fragment with symmetric dimethylarginine replacing methylated K4]” the kcat (KDM5C [4]) was 4.6±0.7 × 10^−3 s^−1, the Km (KDM5C [4]) was 21.1 ± 5.8 µM and the kcat/KM (KDM5C [4]) was 219.0 × 10^−6.

For “ARTKQTAR-Rme2a-STGGKA (ARTKQTARRSTGGKA; asymmetric dimethylarginine at 9; C-terminal amide) [H3(1-15)K9Rme2a, histone H3 fragment with asymmetric dimethylarginine replacing methylated K9]”, the kcat/KM (KDM4E [5]; KDM4E) was 7.04e-05 µM⁻¹ s⁻¹, the kcat (KDM4E [5]; [7]) was 4.6±0.7 × 10^−3 s^−1 and the Km (KDM4E [5]; [8]) was 66 ± 5 µM. The kcat/KM (KDM4E [5]; [9]) was 70.4 × 10^−6, the kcat (KDM3A [6]) was 5.0±0.6 × 10^−3 s^−1 and the Km (KDM3A [6]) was 11.6 ± 1.4 µM. For the same substance, the kcat/KM (KDM3A [6]) was 430.7 × 10^−6.

For “ARTKQTAR-Rme2s-STGGKA (ARTKQTARRSTGGKA; symmetric dimethylarginine at 9; C-terminal amide) [H3(1-15)K9Rme2s, histone H3 fragment with symmetric dimethylarginine replacing methylated K9]”, the kcat/KM (KDM4E [5]; KDM4E) was 8.59e-05 µM⁻¹ s⁻¹, the kcat (KDM4E [5]; [7]) was 8.7±0.3 × 10^−3 s^−1 and the Km (KDM4E [5]; [8]) was 101 ± 11 µM. The kcat/KM (KDM4E [5]; [9]) was 85.9 × 10^−6, the kcat (KDM3A [6]) was 3.0±0.3 × 10^−3 s^−1 and the Km (KDM3A [6]) was 23.7 ± 1.9 µM. The kcat/KM (KDM3A [6]) was 126.5 × 10^−6.

With “ARTKQTAR-Rme-STGGKA (ARTKQTARRSTGGKA; monomethylarginine at 9; C-terminal amide) [H3(1-15)K9Rme, histone H3 fragment with monomethylarginine replacing methylated K9]” the kcat (KDM4E [5]; [7]) was 2.7±0.2 × 10^−3 s^−1, the Km (KDM4E [5]; [8]) was 169 ± 35.9 µM and the kcat (KDM4E [5]; KDM4E, FDH-coupled assay) was 0.0027 ± 0.0002 s⁻¹. For the same substance, the kcat/KM (KDM4E [5]; [9]) was 15.9 × 10^−6, the kcat (KDM3A [6]) was 11.0±1.2 × 10^−3 s^−1 and the Km (KDM3A [6]) was 12.1 ± 3.1 µM. The kcat/KM (KDM3A [6]) was 907.6 × 10^−6.

For “KQLATKAA-Rme2a-KSAPAT [H3 (18–32) R26me2a, 'natural' histone H3 peptide asymmetrically dimethylated at R26]”, the “observed arginine demethylation activity” value (KDM3A [3]) was “−”, the “observed arginine demethylation activity” value (KDM6B) was “−” and the “observed arginine demethylation activity” value (KDM4E [1]) was “+”. For the same substance, the “observed arginine demethylation activity” value (KDM5C [2]) was “−”.

“KQLATKAA-Rme-KSAPAT [H3 (18–32) R26me, 'natural' histone H3 peptide monomethylated at R26]” was tested, and the “observed arginine demethylation activity” value (KDM3A [3]) was “−”, the “observed arginine demethylation activity” value (KDM6B) was “−” and the “observed arginine demethylation activity” value (KDM4E [1]) was “+”. For the same substance, the “observed arginine demethylation activity” value (KDM5C [2]) was “−”.

With SG-Rme2a-GKGGKGLGKGGAK [H4R3me2a] the “demethylation, in words” value (KDM4E [1]) was “low levels of demethylation” and the “demethylation, in words” value (KDM5C [2]) was “low levels of demethylation”.
